For this experiment, the target named is T1, PATELLIN2 (PATL2) (Arabidopsis thaliana, UniProt Q56ZI2).
T1 construct: Strep-tagged PATL2 (full length), recombinant from E. coli
T1 sequence (Q56ZI2 2-683): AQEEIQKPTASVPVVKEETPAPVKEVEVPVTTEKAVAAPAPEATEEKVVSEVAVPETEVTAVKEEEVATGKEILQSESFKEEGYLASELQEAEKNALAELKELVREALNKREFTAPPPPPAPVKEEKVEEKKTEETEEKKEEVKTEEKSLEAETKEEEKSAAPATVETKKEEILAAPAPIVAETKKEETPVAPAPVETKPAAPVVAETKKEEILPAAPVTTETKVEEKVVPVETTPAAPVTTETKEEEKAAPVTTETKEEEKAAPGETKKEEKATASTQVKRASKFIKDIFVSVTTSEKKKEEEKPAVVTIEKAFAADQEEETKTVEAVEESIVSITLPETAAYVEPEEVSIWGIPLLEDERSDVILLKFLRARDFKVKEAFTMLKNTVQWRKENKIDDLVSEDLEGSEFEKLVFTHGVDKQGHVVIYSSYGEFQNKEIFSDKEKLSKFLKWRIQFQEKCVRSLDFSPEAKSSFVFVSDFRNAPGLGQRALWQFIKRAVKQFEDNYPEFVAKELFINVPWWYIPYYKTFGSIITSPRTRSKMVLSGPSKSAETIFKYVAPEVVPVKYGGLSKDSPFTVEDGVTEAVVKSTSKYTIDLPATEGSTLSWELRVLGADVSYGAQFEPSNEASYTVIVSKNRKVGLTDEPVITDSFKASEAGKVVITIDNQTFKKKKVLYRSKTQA
The experiment is described as follows: spectrofluorimetric titration of NBD fluorescence with […] purified protein. It is filed as binding.

pKd: −log10 of the molar value.

A word on the pKd: it is the negative decadic logarithm of the Kd, by convention in mol/L. Lower therefore signals a large Kd. Take NBD-α-tocopherol [NBD-Toc]: the negative-log Kd (pKd) was 7.07.
